According to patent US20200306295A1, “METHOD AND DEVICE FOR ANNIHILATION OF Staphylococcus aureus” (priority 2017, published 2020):
Values after ≈ are worked out from the molar mass of the structure shown.

Key:
stationary-phase MRSA [1] = type: cell-based, S. aureus; settings: checkerboard assay, MRSA growth inhibition
Protocol: To monitor the response of bacteria to laser treatment alone, antibiotic treatment alone, or their combinations, bacterial growth was continuously monitored overnight (18 hours with an interval of 30 min at 37° C.) by measuring optical density at 600 nm (OD600). Depending on the specific assay applied, the bacterial cells were suspended in 100 or 200 μl TSB medium under different treatment schemes (antibiotic alone, laser treatment alone, antibiotic plus laser treatment) with a final concentration of ˜10^5 CFU/ml. Bacterial growth was defined as OD600≥0.1.
Stationary-phase bacterial cells was washed and resuspended in 1×PBS at its original concentration. […] The treated droplet was collected and resuspended into 5 ml TSB (1:1000 dilution) for each group. Corresponding groups without laser treatment were also conducted for comparison. The bacterial suspensions were transferred to a 96-well plate with antibiotics supplemented into with the first row of the 96-well plate for eight two-fold serial dilution starting at a desired antibiotic concentration (e.g. ofloxacin: 2 μg/ml). After serial dilution, bacterial growth within the same well plate was monitored by a plate reader for 18 hours (OD600, 37° C.). The checkerboard assay was used for groups with laser treatment alone or laser plus antibiotic treatment. Two independent experiments of checkerboard assay were performed for each antibiotic with or without laser treatment. Based on the readout of OD600, a heat map was created to evaluate the antibiotic potentiation or synergistic effect enabled by STX photolysis.
Based on the checkerboard results, the fractional inhibitory concentration index (FICI), a synergy evaluation method between two antibiotics, was calculated as below: FICI=MIC of antibiotic A in combination/MIC of antibiotic A alone+MIC of antibiotic B in combination/MIC of antibiotic B alone. The interaction of the two antibiotics was defined as below: synergy if FICI≤0.5, no interaction if 0.5<FICI≤4, antagonism if FICI>4^46. […] Considering this reason, the synergy calculation was simplified as below: FICI=MIC of antibiotic A in combination with laser treatment/MIC of antibiotic A alone with synergy defined by FICI≤0.5.

VRSA NR-46419 (VRSA 9) = assay: MIC by standard broth-dilution method; type: cell-based, S. aureus; settings: Staphylococcus aureus, N = 3
Text: (§1) For each measurement, three independent replicates were applied.

[2] = tested on: MRSA USA400 inside murine macrophage cells (J774); assay: Intracellular MRSA infection model in J774 macrophage cells; settings: infected macrophage cells; vancomycin 2 μg/mL (4×MIC)
[3] = tested on: S. aureus (ATCC 6538) biofilm; settings: antibiotic alone
stationary-phase MRSA [4] = assay: Time-killing assay in PBS with or without pulsed laser (CFU enumeration); type: cell-based, S. aureus; settings: after 6 hours in PBS
Protocol: (§2) To quantify viable bacterial cells, CFU experiments were performed. 100 μl of sample analyte was transferred into a 96-well plate and then three or four ten-fold serial dilution achieved by transferring 20 μl bacterial culture into 180 μl 1×PBS in the next dilution row. After serial dilution, an aliquot (4 μl) from each well was spotted onto sterile TSA plates. After incubating the plates overnight (˜18 hours) at 37° C., the colonies were enumerated, and cell number was calculated in CFU/ml. For each CFU enumeration experiment, three independent replicates were applied.
(§3) Stationary-phase MRSA was prepared, washed and resuspended in 1×PBS at two-times of its original concentration. […] After laser treatment, the droplets were resuspended into 200 μl of 1×PBS (1:40 dilution) supplemented with antibiotics at different concentrations in a mini centrifuge tube (89166-278, VWR international). For example, daptomycin was added into MRSA solution after laser treatment at desired concentration of 0×MIC, 5×MIC, 10×MIC, 30×MIC, or 100×MIC supplemented with 50 μg/ml CaCl2). Corresponding groups without laser treatment were also conducted for comparison. These tubes were incubated within an orbital incubator (37° C., 200 rpm) for different incubation time. At each specific time point, 40 μl of aliquot from each group was transferred to a 96-well plate for follow-up CFU enumerating assay. In the case of tobramycin, additional antibiotic washing by 1×PBS was performed before the CFU experiment to avoid antibiotic interference. For time-killing assay in fresh human whole blood, similar protocol was followed as above, except that 1×PBS was replaced by fresh human whole blood and the initial stationary-phase MRSA solution was diluted by ten times with a concentration of ˜10^7 CFU/ml.

[5] = tested on: MRSA NRS384 (MRSA USA 300); assay: MIC by standard broth-dilution method; type: cell-based, S. aureus; settings: Staphylococcus aureus; MRSA NRS384 (MRSA USA 300); N = 3; read-out: MIC
Text: as §1

[6] = tested on: VRSA and multidrug-resistant MRSA clinical isolates; assay: Time-killing assay on resistant clinical isolates; type: cell-based, S. aureus; settings: 10 MIC daptomycin and laser treatment
Protocol: as §2
as §3, with “In the case of tobramycin, additional antibiotic washing by 1×PBS was performed before the CFU experiment to avoid antibiotic interference. For time-killing assay in fresh human whole blood, similar protocol was followed as above, except that 1×PBS was replaced by fresh human whole blood and the initial stationary-phase MRSA solution was diluted by ten times with a concentration of ˜10^7 CFU/ml.” left out

stationary-phase MRSA [7] = assay: Daptomycin-BODIPY membrane insertion assay; type: cell-based, S. aureus; settings: daptomycin labeled with BODIPY
Protocol: To study how the membrane fluidity change affects the insertion of membrane-targeting antibiotics, we applied daptomycin-BODIPY membrane insertion assay detailed as below. Firstly, we conjugated daptomycin with a fluorescent dye, BODIPY STP ester (B10006, Thermo Fisher Scientific). Briefly, 10 mg of daptomycin (103060-53-3, Acros Organics) was dissolved into 1 ml of 0.1 M sodium bicarbonate solution. Then 100 μl of BODIPY STP ester (B10006, Thermo Fisher Scientific, stock: 1 mg/ml in DMSO) was added to the daptomycin solution drop by drop. Then the mixed solution reacted under stirring at room temperature for 1 hour. Afterwards, the solution was under overnight dialysis against extensive 0.1 M sodium bicarbonate solution. After dialysis, the mixed solution was lyophilized. […] After treatment, bacterial droplets were collected into 985 μl of sterile pre-warned TSB medium containing 150 μg/ml of CaCl2. 10 μl of daptomycin-BODIPY (stock: 3 mg/ml in 1×PBS) was added to the above solution, and incubated for 30 min at 37° C. […] Confocal laser scanning microscope (FV3000, Olympus) was conducted to quantify daptomycin-BODIPY distribution and its signal intensity at an excitation wavelength of 488 nm. Quantitative analysis of the signal from individual MRSA cells was performed among groups with different laser treatment time.

MRSA USA300 = assay: In vivo mice skin infection model (daptomycin, pulsed laser); design: species or system BALB/c mice
Protocol: The in vivo mice experiment was conducted following protocols approved by Boston University Animal Care and Use Committee (BUACUC). To initiate the formation of a skin wound, five groups (N=5) of eight-week-old female BALB/c mice (obtained from the Jackson Laboratory, ME, USA) were disinfected with ethanol (70%) and shaved on the middle of their back (approximately a one-inch by one-inch square region around the injection site) one day prior to infection as described from a reported procedure^45. To prepare the bacterial inoculum, an aliquot of overnight culture of MRSA USA300 was transferred to fresh TSB and shaken at 37° C. until an OD600 value of ˜1.0 was achieved. The cells were centrifuged, washed once with 1×PBS, re-centrifuged, and then re-suspended in 1×PBS. Mice subsequently received an intradermal injection (40 μl) containing ˜10^9 CFU/ml MRSA USA300. An open wound formed at the site of injection for each mouse, ˜48 hours post-infection. Topical treatment was initiated subsequently with each group of mice receiving the following: daptomycin (1%, using glycerol as the vehicle), pulsed laser (1 cm diameter illumination area, 10 min treatment time, 120 mW), or a combination of pulsed laser and daptomycin. One group of mice was left as the control. […] Data were analyzed via an unpaired t-test, utilizing Origin 2019b (OriginLab Corporation).

Compound	synergism between laser treatment and antibiotic (stationary-phase MRSA [1])	MIC (VRSA NR-46419 (VRSA 9))	killing of intracellular MRSA 400 (CFU) [2]	MRSA killed inside biofilm [3]	reduction of stationary-phase MRSA (stationary-phase MRSA [4]; 10 MIC with 5 min laser treatment)	reduction of stationary-phase MRSA (stationary-phase MRSA [4]; antibiotic alone at 100 MIC)	MIC [5]	eradication by synergistic therapy [6]	cellular uptake / membrane insertion with laser treatment vs untreated (stationary-phase MRSA [7])	cell killing in infected skin (CFU) (MRSA USA300; 10 mg/ml daptomycin alone, topical)	cell killing in infected skin (CFU) (MRSA USA300; 10 mg/ml daptomycin plus 10 min laser)
CN[C@H](CC(C)C)C(=O)N[C@H]1C(=O)N[C@@H](CC(N)=O)C(=O)N[C@H]2C(=O)N[C@H]3C(=O)N[C@H](C(=O)N[C@H](C(=O)O)c4cc(O)cc(O)c4-c4cc3ccc4O)[C@H](O)c3ccc(c(Cl)c3)Oc3cc2cc(c3O[C@@H]2O[C@H](CO)[C@@H](O)[C@H](O)[C@H]2O[C@H]2C[C@](C)(N)[C@H](O)[C@H](C)O2)Oc2ccc(cc2Cl)[C@H]1O [Vancomycin, vancomycin]	no synergism	256 µg/mL (≈ 177 µM)	no effect	70%	–	–	–	–	–	–	–
CCCCCCCCCC(=O)N[C@@H](Cc1c[nH]c2ccccc12)C(=O)N[C@H](CC(N)=O)C(=O)N[C@@H](CC(=O)O)C(=O)N[C@@H]1C(=O)NCC(=O)N[C@@H](CCCN)C(=O)N[C@@H](CC(=O)O)C(=O)N[C@H](C)C(=O)N[C@@H](CC(=O)O)C(=O)NCC(=O)N[C@H](CO)C(=O)N[C@@H]([C@H](C)CC(=O)O)C(=O)N[C@@H](CC(=O)c2ccccc2N)C(=O)O[C@@H]1C [Daptomycin, daptomycin]	–	–	–	–	more than 3.5 log	1 log	8 µg/mL (≈ 4.94 µM)	effective in eradicating	significantly more daptomycin uptake	81%	around 95%
